Test results: US11479539B2, “Small molecule modulators of the BTB domain of Keap1” (MedImmune Limited, priority 2017, dated 2022)

Biological target: Keap1 (Homo sapiens (Human), UniProt Q14145)
Assay: HEK293 ARE luciferase assay
Assay type: cell-based
Settings: HEK-293 ARE firefly luciferase transiently transfected cells; 18 h incubation; mean of 1 to 20 individual measurements
Description: The purpose of this assay is to identify small molecule inhibitors of Keap1, preventing Keap1 binding to Nrf2, and thus activating the Nrf2 signalling pathway in HEK-293 ARE firefly luciferase transiently transfected cells. HEK-293 cells express wild-type Keap1 protein and therefore have low constitutive levels of Nrf2 protein and Nrf2-dependent transcription. […] When Keap1 is inhibited, Nrf2 signalling is activated, and there is an increase in luciferase expression and light emission.
Cryopreserved HEK ARE luciferase cells were rapidly thawed in a 37° C. water bath and resuspended in assay culture medium (DMEM, 10% FCS, 2 mM L-glutamine). The cell suspension was pelleted by centrifugation ([…]; 300 g) using a Heraeus benchtop centrifuge. Supernatant was removed and the pellet was gently resuspended in 5 mL culture medium per vial. Cell viability and cell number was measured using an Invitrogen Countess automated cell counter (typical viability 80%), and cells were diluted to a density of 5.0×10^5 cells/mL.
Cells were then plated out into white 384-well plates (Greiner 781080) using a Multidrop Combi, 20 μL/well, to give 10,000 cells/well. As appropriate, test compounds had been added to wells prior to dispensing cells using an Echo 555 acoustic dispenser (Labcyte). Plates were left at room temperature for ˜10 min to promote even cell settling across the plate before incubation for 18 h at 37° C., 95% humidity and 5% CO2.
After 18 h incubation, plates were removed from the incubator and allowed to cool to room temperature for 30 min, before 10 μL per well SteadyGlo reagent detection reagent was added (as per manufacturer's instructions, 10 min before required 10 mL room temperature buffer was added to one vial of lyophilised substrate and inverted several times to fully dissolve). Plates were then incubated in the dark for 30 min before reading on an Envision plate reader.
Compounds were acoustically dispensed using a Labcyte Echo, using a 10 pt dose curve with a top concentration of 100 μM. Assay wells were backfilled with DMSO to a total of 60 nL to maintain 0.3% (v/v) DMSO through the assay.
The Stimulator signal was defined using 30 μM tert-butyl hydroquinone (tBHQ) and the Neutral signal by DMSO vehicle control. All calculations were performed using GeneData.
In IBIS Column Calculations, Assay Type was set to ‘Stimulator’, and the Activity Threshold was set to 50.
The mean values were calculated from anywhere from 1 to 20 individual measurements.

Chain of Keap1 (Q14145 whole entry): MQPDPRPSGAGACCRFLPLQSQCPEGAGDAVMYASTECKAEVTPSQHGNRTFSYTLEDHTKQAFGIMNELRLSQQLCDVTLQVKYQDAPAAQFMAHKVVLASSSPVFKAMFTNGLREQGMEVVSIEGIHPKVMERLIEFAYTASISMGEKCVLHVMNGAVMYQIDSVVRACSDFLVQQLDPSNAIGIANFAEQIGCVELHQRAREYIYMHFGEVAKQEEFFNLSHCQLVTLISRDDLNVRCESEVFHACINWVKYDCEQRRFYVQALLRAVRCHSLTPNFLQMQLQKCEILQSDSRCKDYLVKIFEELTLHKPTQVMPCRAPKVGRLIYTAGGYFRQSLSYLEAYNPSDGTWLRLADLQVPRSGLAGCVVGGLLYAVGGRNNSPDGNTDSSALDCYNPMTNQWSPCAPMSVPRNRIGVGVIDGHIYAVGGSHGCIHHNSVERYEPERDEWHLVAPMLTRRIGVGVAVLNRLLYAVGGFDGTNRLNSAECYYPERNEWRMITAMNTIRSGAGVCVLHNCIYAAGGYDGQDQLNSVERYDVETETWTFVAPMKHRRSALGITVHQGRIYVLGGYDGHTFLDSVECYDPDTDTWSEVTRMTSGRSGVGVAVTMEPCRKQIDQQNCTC

Row | SMILES | EC50 [nM]
1 | CC1(C)CC(O)(c2ncccc2C(F)F)C=C(C#N)C1=O (centres unmarked) [Compound 6, 3-[3-(difluoromethyl)-2-pyridyl]-3-hydroxy-5,5-dimethyl-6-oxo-cyclohexene-1-carbonitrile] | > 10000
2 | COC1(c2cccc(-c3c(C)noc3C)n2)C=C(C#N)C(=O)C2(CC2)C1 (centres unmarked) [Compound 130, 7-[6-(3,5-dimethyl-1,2-oxazol-4-yl)pyridin-2-yl]-7-methoxy-4-oxospiro[2.5]oct-5-ene-5-carbonitrile] | 153
3 | COC1(c2ncc(F)cc2-c2sc(C)nc2C)C=C(C#N)C(=O)C(C)(C)C1 (centres unmarked) [Compound 191, 3-[3-(2,4-dimethyl-1,3-thiazol-5-yl)-5-fluoropyridin-2-yl]-3-methoxy-5,5-dimethyl-6-oxocyclohex-1-ene-1-carbonitrile] | 12
4 | COC1(c2nc(C)cs2)C=C(C#N)C(=O)C2(CC2)C1 (single isomer, unassigned) [Compound 59, 7-methoxy-4-7-(4-methyl-1,3-thiazol-2-yl)-4-oxospiro[2.5]oct-5-ene-5-carbonitrile] | 261
5 | COC1(c2ncc(F)cc2-c2ccnnc2)C=C(C#N)C(=O)C(C)(C)C1 (single isomer, unassigned) [Compound 220, 3-[5-fluoro-3-(pyridazin-4-yl)pyridin-2-yl]-3-methoxy-5,5-dimethyl-6-oxocyclohex-1-ene-1-carbonitrile] | 10
6 | COC1(c2ccc(F)cn2)C=C(C#N)C(=O)C(C)(C)C1 (centres unmarked) [Compound 123, 3-(5-fluoropyridin-2-yl)-3-methoxy-5,5-dimethyl-6-oxocyclohex-1-ene-1-carbonitrile] | 61
7 | COC1(c2ncc(F)cc2C#CC(C)C)C=C(C#N)C(=O)C(C)(C)C1 (centres unmarked) [Compound 165, 3-[5-fluoro-3-(3-methylbut-1-yn-1-yl)pyridin-2-yl]-3-methoxy-5,5-dimethyl-6-oxocyclohex-1-ene-1-carbonitrile] | 151
8 | COC1(c2nc(C)c(-c3ccccn3)s2)C=C(C#N)C(=O)C2(CC2)C1 (centres unmarked) [Compound 194, 7-methoxy-7-[4-methyl-5-(pyridin-2-yl)-1,3-thiazol-2-yl]-4-oxospiro[2.5]oct-5-ene-5-carbonitrile] | 203
9 | COC1(c2ncc(F)cc2-c2cnn(C)c2)C=C(C#N)C(=O)C(C)(C)C1 (centres unmarked) [Compound 161, 3-[5-fluoro-3-(1-methyl-1H-pyrazol-4-yl)pyridin-2-yl]-3-methoxy-5,5-dimethyl-6-oxocyclohex-1-ene-1-carbonitrile] | 14
10 | COC1(c2ncc(F)cc2-c2ccc3nccn3c2)C=C(C#N)C(=O)C(C)(C)C1 (single isomer, unassigned) [Compound 226, 3-[5-fluoro-3-(imidazo[1,2-a]pyridin-6-yl)pyridin-2-yl]-3-methoxy-5,5-dimethyl-6-oxocyclohex-1-ene-1-carbonitrile] | 13
11 | COC1(c2nc(C(F)(F)F)cs2)C=C(C#N)C(=O)C(C)(C)C1 (centres unmarked) [Compound 141, 3-methoxy-5,5-dimethyl-6-oxo-3-[4-(trifluoromethyl)-1,3-thiazol-2-yl]cyclohex-1-ene-1-carbonitrile] | 335
12 | COC1(c2ncc(F)cc2C(F)F)C=C(C#N)C(=O)C2(CC2)C1 (centres unmarked) [Compound 196, 7-[3-(difluoromethyl)-5-fluoropyridin-2-yl]-7-methoxy-4-oxospiro[2.5]oct-5-ene-5-carbonitrile] | 46
13 | CC1(C)CC(O)(c2ccc(C(F)(F)F)cn2)C=C(C#N)C1=O (centres unmarked) [Compound 24, 3-hydroxy-5,5-dimethyl-6-oxo-3-[5-(trifluoromethyl)-2-pyridyl]cyclo-hexene-1-carbonitrile] | > 10000
14 | COC1(c2ncc(F)cc2C(F)(F)F)C=C(C#N)C(=O)C(C)(C)C1 (single isomer, unassigned) [Compound 26, 3-(5-fluoro-3-(trifluoromethyl)py-ridin-2-yl)-3-methoxy-5,5-dimethyl-6-oxocyclohex-1-enecarbonitrile] | 24
15 | COC1(c2nc(C)cs2)C=C(C#N)C(=O)C(C)(C)C1 (single isomer, unassigned) [Compound 36, 3-methoxy-5,5-dimethyl-3-(4-methylthiazol-2-yl)-6-oxocyclohex-1-enecarbonitrile] | 96
16 | COc1cncc(-c2cc(F)cnc2C2(OC)C=C(C#N)C(=O)C(C)(C)C2)c1 (single isomer, unassigned) [Compound 237, 3-(5-fluoro-5′-methoxy[3,3′-bipyridin]-2-yl)-3-methoxy-5,5-dimethyl-6-oxocyclohex-1-ene-1-carbonitrile] | 20
17 | COC1(c2sccc2C)C=C(C#N)C(=O)C(C)(C)C1 (single isomer, unassigned) [Compound 34, 3-methoxy-5,5-dimethyl-3-(3-methylthiophen-2-yl)-6-oxocyclohex-1-enecarbonitrile] | 12
18 | COC1(c2ncc(F)cc2-c2cccc(=O)[nH]2)C=C(C#N)C(=O)C(C)(C)C1 (centres unmarked) [Compound 193, 3-(5′-fluoro-6-oxo[1,6-dihydro[2,3′-bipyridine]]-2′-yl)-3-methoxy-5,5-dimethyl-6-oxocyclohex-1-ene-1-carbonitrile] | > 10000
19 | COC1(c2ncc(Cl)cc2C(F)(F)F)C=C(C#N)C(=O)C(C)(C)C1 (single isomer, unassigned) [Compound 208, 3-[5-chloro-3-(trifluoromethyl)pyridin-2-yl]-3-methoxy-5,5-dimethyl-6-oxocyclohex-1-ene-1-carbonitrile] | 231
20 | COC1(c2ccc(Cl)cn2)C=C(C#N)C(=O)C2(CC2)C1 (centres unmarked) [Compound 65, 7-(5-chloropyridin-2-yl)-7-methoxy-4-oxospiro[2.5]oct-5-ene-5-carbonitrile] | 247
21 | COC1(c2cccc(-c3cnn(C)c3)n2)C=C(C#N)C(=O)C(C)(C)C1 (single isomer, unassigned) [Compound 107, 3-methoxy-5,5-dimethyl-3-(6-(1-methyl-1H-pyrazol-4-yl)pyridin-2-yl)-6-oxocyclohex-1-ene-1-carbonitrile] | 37
22 | COC1(c2cccc(-c3cccnc3)n2)C=C(C#N)C(=O)C(C)(C)C1 (centres unmarked) [Compound 116, 3-([2,3′-bipyridin]-6-yl)-3-methoxy-5,5-dimethyl-6-oxocyclohex-1-ene-1-carbonitrile] | 382
23 | COC1(c2cccc(-c3cnc(C)nc3)n2)C=C(C#N)C(=O)C2(CC2)C1 (single isomer, unassigned) [Compound 50, 7-methoxy-7-(6-(2-methylpyrimidin-5-yl)pyridin-2-yl)-4-oxospiro[2.5]oct-5-ene-5-carbonitrile] | 30
24 | COC1(c2ncccc2Br)CC(C)(C)C(=O)C(C#N)=C1C (centres unmarked) [Compound 108, 3-(3-bromo-2-pyridyl)-3-methoxy-2,5,5-trimethyl-6-oxo-cyclohexene-1-carbonitrile] | 1900
25 | COC1(c2ncc(F)cc2-c2cnn(C3CCCC3)c2)C=C(C#N)C(=O)C(C)(C)C1 (single isomer, unassigned) [Compound 83, 3-[3-(1-cyclopentylpyrazol-4-yl)-5-fluoro-2-pyridyl]-3-methoxy-5,5-dimethyl-6-oxo-cyclohexene-1-carbonitrile] | 70
26 | COC1(c2ncc(F)cc2-c2ccc(C(F)(F)F)nc2)C=C(C#N)C(=O)C(C)(C)C1 (single isomer, unassigned) [Compound 90, 3-[5-fluoro-3-[6-(trifluoromethyl)-3-pyridyl]-2-pyridyl]-3-methoxy-5,5-dimethyl-6-oxo-cyclohexene-1-carbonitrile] | 11
